Where “and” joins values, the source holds several entries; their conditions need not be identical. Identical values can stand only once. Entries after “also recorded” stand apart in the source; their conditions may differ. Like-named read-outs stand apart in the source and are kept apart here.
Legend:
[1] = system: rheumatoid arthritis patients; conditions: cited from earlier work
[2] = pediatric patients with juvenile rheumatoid arthritis, cited from earlier work
[3] = system: patients with rheumatoid arthritis; conditions: 15 mg per week, cited from earlier work
[4] = system: patients with rheumatoid arthritis; conditions: after switching from intramuscular to oral; cited from earlier work
[5] = system: patients with active rheumatoid arthritis; conditions: cited from earlier work; for patients achieving ACR20: 16 weeks, starting dose 15 mg per week; for time to achieve an ACR20 response: subgroup n=98; for ACR20 responders: subgroup ≥1 year since diagnosis with prior DMARDs or steroids (n=98)
[6] = Pharmacokinetics of methotrexate in plasma after subcutaneous injection with autoinjector or needle/syringe; conditions: for AUC(0-inf) / AUC(0-τ) / Tmax / T½ / AUC: plasma; for AUC(0-t): individual animals; for AUC: AUC(0-τ)
[7] = cited from earlier work
[8] = Autoinjector, Female, 12.5 mg SC, animals S5196028/S5195684/S5195757
[9] = Autoinjector, Male, 12.5 mg SC, animals S5196273/S5196559/S5196206
[10] = Syringe, Female, 12.5 mg SC, animals S5196028/S5195684/S5195757
[11] = Syringe, Male, 12.5 mg SC, animals S5196273/S5196559/S5196206

CN(Cc1cnc2nc(N)nc(N)c2n1)c1ccc(C(=O)N[C@@H](CCC(=O)O)C(=O)O)cc1 [Methotrexate, L-(+)-N-[p-[[(2,4-Diamino-6-pteridinyl)methyl]methylamino]-benzoyl]glutamic acid]
patients judged to have moderate or marked improvement ([1]; 10 mg to 15 mg intramuscular once a week, 78 patients): Eighty-two
patients who deteriorated after switching to oral methotrexate ([1]; improved after switching back to intramuscular): 10 of 48 patients
average mean serum concentration ([2]; about 1 hour): about 0.59 μM
average mean serum concentration ([2]; about 2 hours): about 0.44 μM
average mean serum concentration ([2]; about 3 hours): about 0.29 μM
average DAS28 ([3]; after switch from oral to intramuscular administration): 5.2
average DAS28 ([3]; before switch from oral to intramuscular administration): 5.6
patients reporting nausea [4]: 48%
patients achieving ACR20 ([5]; oral): 77%
time to achieve an ACR20 response ([5]; oral): 6 weeks
ACR20 responders ([5]; oral): 63%
further ACR20 non-responders with positive ACR20 response ([5]; subcutaneous dosage increased from 15 mg to 20 mg): 23%
patients achieving ACR20 ([5]; subcutaneous): 85%
time to achieve an ACR20 response ([5]; subcutaneous): 4 weeks
ACR20 responders ([5]; subcutaneous): 89%
ACR20 non-responders with positive ACR20 response after switch ([5]; switched from 15 mg oral to 15 mg subcutaneous at 16 weeks): 30%
difference in exposure / PK parameters between males and females ([6]; 12.5 mg SC, both devices): no marked difference; also recorded: no marked sex-related differences
exposure with autoinjector compared to needle/syringe ([6]; 12.5 mg SC, male and female minipigs): very similar; also recorded: comparable
AUC(0-inf) [6, 8]: 1859 ng·mL·h
AUC(0-τ) [6, 8]: 1857 ng·mL·h
Tmax [6, 8]: 15 min
T½ [6, 8]: 237 min and 196 min
AUC(0-t) ([6]; Autoinjector, Female, Day 8): 2498 ng·h/mL and 1857 ng·h/mL
T½ ([6]; Autoinjector, Male, 12.5 mg SC, Mean): 115 min
Tmax ([6]; Autoinjector, Male, 12.5 mg SC, Median): 15 min
AUC(0-inf) [6, 9]: 1903 ng·mL·h and 1407 ng·mL·h
Tmax [6, 9]: 15 min
T½ [6, 9]: 120 min
AUC(0-t) ([6]; Needle/Syringe, Female, Day 1): 2378 ng·h/mL and 1831 ng·h/mL
Tmax ([6]; Syringe, Female, 12.5 mg SC, Median): 15 min
AUC(0-inf) [6, 10]: 2675 ng·mL·h and 1832 ng·mL·h
Tmax [6, 10]: 15 min
Tmax ([6]; Syringe, Male, 12.5 mg SC, Median): 15 min
T½ ([6]; Syringe, Male, 12.5 mg SC, animal S5196559): 115 min
AUC(0-τ) [6, 11]: 2464 ng·mL·h and 2016 ng·mL·h
Tmax [6, 11]: 15 min and 30 min
time at which maximal plasma concentrations were generally observed ([6]; both devices, first collection time point): 0.25 h
AUC(0-inf) ([6]; female, Gottingen, minipig, sc, 12.5 mg, AUC(0-inf), Autoinjector, 12.5 mg SC, Mean): 2510 ng·h/mL
AUC(0-inf) ([6]; female, Gottingen, minipig, sc, 12.5 mg, AUC(0-inf), Autoinjector, 12.5 mg SC, animals S5196028/S5195684/S5195757): 3170 ng·h/mL
AUC(0-inf) ([6]; female, Gottingen, minipig, sc, 12.5 mg, AUC(0-inf), Syringe, 12.5 mg SC, Mean): 2300 ng·h/mL
AUC(0-inf) ([6]; female, Gottingen, minipig, sc, 12.5 mg, AUC(0-inf), Syringe, 12.5 mg SC, animals S5196028/S5195684/S5195757): 2380 ng·h/mL
AUC ([6]; female, Gottingen, minipig, sc, 12.5 mg, Syringe, 12.5 mg SC, animals S5196028/S5195684/S5195757): 1830 ng·h/mL
AUC(0-inf) ([6]; male, Gottingen, minipig, sc, 12.5 mg, AUC(0-inf), Autoinjector, 12.5 mg SC, Mean): 1490 ng·h/mL
AUC(0-inf) ([6]; male, Gottingen, minipig, sc, 12.5 mg, AUC(0-inf), Autoinjector, 12.5 mg SC, animals S5196273/S5196559/S5196206): 1160 ng·h/mL
AUC(0-inf) ([6]; male, Gottingen, minipig, sc, 12.5 mg, AUC(0-inf), Syringe, 12.5 mg SC, animal S5196559): 2470 ng·h/mL
AUC ([6]; male, Gottingen, minipig, sc, 12.5 mg, Syringe, 12.5 mg SC, Mean): 1940 ng·h/mL
AUC ([6]; male, Gottingen, minipig, sc, 12.5 mg, Syringe, 12.5 mg SC, animals S5196273/S5196559/S5196206): 1320 ng·h/mL
peak serum concentrations and bioavailability, intramuscular versus subcutaneous ([7]; Brooks et al., 12.5 mg to 25 mg per week): similar
fall of total absorption after oral administration, maintenance versus starting dosage ([7]; Hamilton et al., start 7.5 mg per week, maintenance average 17 mg per week, 21 rheumatoid arthritis patients): about 13.5%

Source: patent publication US10555954B2, “Hazardous agent injection system” (Antares Pharma, Inc., priority 2009, dated 2020)
